Values belong to the compound of their own block, whether it stands above or below them. The source made the active and inactive calls. No cut-off for these calls is given here.
What was measured:
HepG2 [1] = assay: Antiproliferative activity against human HepG2 cells assessed as inhibition of cell proliferation incubated for 24 hrs by CCK-8 assay; format: functional, cell-based; settings: HepG2, 24 h
HCT-116 [2] = assay: Effect on TGR5 protein level in human HCT-116 cells by Western blot analysis; format: functional, cell-based
[3] = Antiproliferative activity against dog MDCK cells assessed as inhibition of cell proliferation incubated for 24 hrs by CCK-8 assay; format: toxicity, cell-based, Canis lupus familiaris
HepG2 [4] = assay: Effect on TGR5 protein level in human HepG2 cells by Western blot analysis; format: functional, cell-based
HCT-116 [5] = assay: Antiproliferative activity against human HCT-116 cells assessed as inhibition of cell proliferation incubated for 24 hrs by CCK-8 assay; format: functional, cell-based; settings: HCT-116, 24 h
MDCK = assay: Effect on TGR5 protein level in dog MDCK cells by Western blot analysis; format: functional, cell-based; settings: Canis lupus familiaris
[6] = Photophysical property of the compound assessed as maximum fluorescent emission peak at 0.03125 to 4 uM by fluorescence spectrophotometric analysis; format: physicochemical; settings: dose 0.03125-4 µM
HCT-116 [7] = assay: Cytotoxicity against human HCT-116 cells assessed as cell viability at 320 uM incubated for 24 hrs by CCK-8 assay; format: toxicity, cell-based; settings: hct-116, 24 h
[8] = Drug localization in human HCT-116 cells Endoplasmic reticulum assessed as increase fluorescence at 30 uM incubated for 30 mins by ER-tracker red probe based inverted fluorescent microscopic analysis; format: ADME, subcellular; settings: hct-116, 0.5 h
[9] = Drug localization in human HCT-116 cells Lysosome assessed as increase fluorescence at 30 uM incubated for 30 mins by lyso-tracker probe based inverted fluorescent microscopic analysis; format: ADME, subcellular; settings: hct-116, 0.5 h
[10] = Drug localization in human HCT-116 cells Mitochondria assessed as increase fluorescence at 30 uM incubated for 30 mins by mito-tracker probe based inverted fluorescent microscopic analysis; format: ADME; settings: hct-116, 0.5 h
HCT-116 [11] = assay: Cytotoxicity against human HCT-116 cells assessed as cell viability upto 80 uM incubated for 24 hrs by CCK-8 assay; format: toxicity, cell-based; settings: hct-116, 24 h

IC50 (HepG2 [1]): 2.1 µM
IC50 (HCT-116 [5]): 5.5 µM
SMILES: C=C(C(NCCNC(=O)CC[C@@H](C)[C@H]1CC[C@H]2[C@@H]3CC[C@@H]4C[C@H](O)CC[C@]4(C)[C@H]3CC[C@]12C)c1ccc(C(=O)OCCOCCOCCOC(=O)O[C@H]2c3cc4c(cc3[C@@H](c3cc(OC)c(OC)c(OC)c3)[C@H]3C(=O)OC[C@@H]32)OCO4)cc1)S(=O)(=O)c1cccc2c(N(C)C)cccc12 (some centres not stated)
Activity (HCT-116 [2]): Active
IC50 at 24 h [3]: 14.6 µM
Activity (HepG2 [4]): Active
Activity (MDCK): Active

Activity [6]: Active
Drug uptake [8]: Active
Drug uptake [9]: Not_active
Drug uptake [10]: Not_active
SMILES: C=C(C(NCCOC(=O)C(C)c1ccc(CC(C)C)cc1)c1ccc(C(=O)OC)cc1)S(=O)(=O)c1cccc2c(N(C)C)cccc12 (configuration not stated)
Activity (HCT-116 [7]): Non-toxic

SMILES: C=C(C(NCCNC(=O)C(C)c1ccc(CC(C)C)cc1)c1ccc(C(=O)OC)cc1)S(=O)(=O)c1cccc2c(N(C)C)cccc12 (configuration not stated)
Activity (HCT-116 [11]): Toxic
